Target: Carbonic anhydrase 9 (Homo sapiens, UniProt Q16790)

Ki [nM]	SMILES
71	NS(=O)(=O)c1ccc(CCNC(=O)CCSSCCC(=O)NCCc2ccc(S(N)(=O)=O)cc2)cc1
3.6	NS(=O)(=O)c1nnc(NC(=O)CCS)s1
9.3	Cn1nc(S(N)(=O)=O)s/c1=N/C(=O)CCSSCCC(=O)/N=c1/sc(S(N)(=O)=O)nn1C

From ChEMBL document CHEMBL1149486, “Carbonic anhydrase inhibitors: Hypoxia-activatable sulfonamides incorporating disulfide bonds that target the tumor-associated isoform IX” (J Med Chem, 2006)
